Measurements as given in patent publication US8841456B2, “1,5-naphthyridine derivative or salt thereof” (FUJIFILM Corporation, priority 2011, dated 2014).
Like-named read-outs stand apart in the source and are kept apart here.

Legend:
human PI3Kα protein = biological target: T1, human PI3Kα protein (Homo sapiens, UniProt P42336); test: PI3Kα enzyme assay (ADP-Glo kinase assay); assay type: biochemical; details: 3 nM PI3Kα, 50 μM PIP2, 100 μM ATP
T1 construct: purchased Carna Biosciences, Inc; host or cells: Baculovirus expression system
T1 sequence (P42336 whole entry): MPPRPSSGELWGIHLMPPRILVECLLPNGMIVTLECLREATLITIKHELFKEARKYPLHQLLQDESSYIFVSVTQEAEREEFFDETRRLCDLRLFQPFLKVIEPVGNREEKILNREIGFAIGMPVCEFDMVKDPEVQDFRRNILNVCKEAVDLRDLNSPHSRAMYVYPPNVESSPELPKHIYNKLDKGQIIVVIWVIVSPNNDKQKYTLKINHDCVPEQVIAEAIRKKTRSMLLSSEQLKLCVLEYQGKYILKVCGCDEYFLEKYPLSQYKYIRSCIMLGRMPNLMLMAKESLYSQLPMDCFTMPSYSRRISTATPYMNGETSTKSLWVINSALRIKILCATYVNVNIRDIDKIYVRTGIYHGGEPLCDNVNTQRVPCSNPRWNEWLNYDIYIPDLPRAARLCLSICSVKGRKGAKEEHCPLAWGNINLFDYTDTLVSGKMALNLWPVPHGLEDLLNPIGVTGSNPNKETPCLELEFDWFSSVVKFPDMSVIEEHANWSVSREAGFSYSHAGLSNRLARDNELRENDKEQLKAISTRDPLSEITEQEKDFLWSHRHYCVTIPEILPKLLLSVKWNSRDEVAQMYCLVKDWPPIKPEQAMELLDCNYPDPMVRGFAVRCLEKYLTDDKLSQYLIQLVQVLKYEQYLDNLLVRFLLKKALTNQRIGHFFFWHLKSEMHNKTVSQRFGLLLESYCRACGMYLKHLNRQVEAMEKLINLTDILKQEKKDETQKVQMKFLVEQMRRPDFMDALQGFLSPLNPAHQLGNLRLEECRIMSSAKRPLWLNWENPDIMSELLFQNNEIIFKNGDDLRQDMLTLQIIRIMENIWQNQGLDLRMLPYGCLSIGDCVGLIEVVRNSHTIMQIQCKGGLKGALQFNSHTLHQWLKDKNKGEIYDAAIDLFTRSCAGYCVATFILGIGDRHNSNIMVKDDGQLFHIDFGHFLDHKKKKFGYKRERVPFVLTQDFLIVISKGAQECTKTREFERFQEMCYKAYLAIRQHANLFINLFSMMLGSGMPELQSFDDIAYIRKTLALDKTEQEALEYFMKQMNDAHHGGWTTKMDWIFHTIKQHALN
T1 sequence (P27986 whole entry partner): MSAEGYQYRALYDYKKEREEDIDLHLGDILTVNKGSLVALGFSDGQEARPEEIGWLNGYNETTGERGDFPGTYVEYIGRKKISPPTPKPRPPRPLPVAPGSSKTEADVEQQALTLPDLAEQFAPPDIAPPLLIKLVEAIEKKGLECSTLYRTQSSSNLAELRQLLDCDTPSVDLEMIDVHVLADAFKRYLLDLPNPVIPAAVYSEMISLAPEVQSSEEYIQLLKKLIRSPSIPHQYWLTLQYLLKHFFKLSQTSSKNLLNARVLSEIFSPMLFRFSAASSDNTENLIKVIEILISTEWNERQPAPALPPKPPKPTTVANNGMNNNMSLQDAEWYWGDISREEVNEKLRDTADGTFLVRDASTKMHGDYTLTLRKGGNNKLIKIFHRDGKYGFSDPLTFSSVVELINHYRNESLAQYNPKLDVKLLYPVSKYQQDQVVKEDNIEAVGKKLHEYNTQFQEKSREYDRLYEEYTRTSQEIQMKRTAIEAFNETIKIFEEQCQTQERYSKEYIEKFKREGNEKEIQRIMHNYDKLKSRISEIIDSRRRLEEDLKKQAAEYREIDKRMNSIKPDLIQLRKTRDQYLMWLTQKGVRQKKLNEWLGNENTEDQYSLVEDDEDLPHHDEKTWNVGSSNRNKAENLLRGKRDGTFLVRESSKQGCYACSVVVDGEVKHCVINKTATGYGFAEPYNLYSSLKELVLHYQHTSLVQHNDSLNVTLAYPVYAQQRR
Method: Evaluation of the PI3Kα inhibitory activity of the compound of the present invention was carried out according to the method as described below.
For the PI3Kα enzyme assay, biotinylated product of a human PI3Kα protein produced using a Baculovirus expression system (Carna Biosciences, Inc.) was used. Further, for the detection of the enzyme activity, an ADP-Glo kinase assay (PROMEGA Corporation) was used.
10 μL of a reaction solution (3 nM PI3Kα, 40 mM Tris-HCl, 20 mM MgCl2, 0.1% BSA, pH 7.5) including the human PI3Kα protein and a test compound at a predetermined concentration was incubated at room temperature for 15 minutes. Thereafter, 5 μL of a mixed solution of L-α-Phosphatidylinositol 4,5-diphosphate (PIP2) (SIGMA-ALDLICH) which was a substrate and ATP(SIGMA-ALDLICH) was added thereto to a final concentration of 50 μM and 100 μM, respectively, and the reaction solution was further incubated at 25° C. for 60 minutes to carry out an enzyme reaction.
After the reaction, 15 μL of an ADP-Glo reagent (PROMEGA Corporation) was added and the resulting liquid was incubated at room temperature for 60 minutes, whereby the enzyme reaction was stopped. Thereafter, after further adding 30 μL of a Kinase Detection Reagent (PROMEGA Corporation) and standing the resulting solution at room temperature for 40 minutes, ADP produced by the enzyme reaction was quantified by luminescence intensity.
For the measurement of luminescence intensity, EnVision (PerkinElmer, Inc.) was used.
(§1) The inhibitory activity of the compounds was evaluated using an IC50 (50% inhibitory concentration). The IC50 was calculated using XLfit (IDBS).

[1] = biological target: T2, glutathione S-transferase (GST)-fusion human ERK2 protein (Homo sapiens, UniProt P28482); test: ERK2 enzyme assay (LabChip mobility shift); assay type: biochemical; details: 2 nM ERK2, 4.25 μM FL-Peptide 8, 43 μM ATP
T2 construct: purchased Carna Biosciences, Inc; host or cells: E. coli expression system
T2 sequence (P28482 whole entry, the tested form may be a part): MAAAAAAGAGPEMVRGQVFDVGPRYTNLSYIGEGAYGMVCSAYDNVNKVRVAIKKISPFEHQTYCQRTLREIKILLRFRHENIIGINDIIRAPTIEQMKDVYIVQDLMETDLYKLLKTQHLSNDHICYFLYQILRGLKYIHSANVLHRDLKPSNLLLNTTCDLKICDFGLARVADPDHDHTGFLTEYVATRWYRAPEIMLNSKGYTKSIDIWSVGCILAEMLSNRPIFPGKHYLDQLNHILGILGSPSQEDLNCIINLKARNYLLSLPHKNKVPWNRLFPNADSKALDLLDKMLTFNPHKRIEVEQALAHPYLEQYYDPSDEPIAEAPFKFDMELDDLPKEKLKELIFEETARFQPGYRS
Method: Evaluation of the ERK2 inhibitory activity of the compound of the present invention was carried out according to the method as described below.
For the ERK2 enzyme assay, a glutathione S-transferase (GST)-fusion human ERK2 protein (Carna Biosciences, Inc.) produced using an E. coli expression system was used.
12 μL of the reaction solution (2 nM ERK2, 100 mM Hepes, 10 mM MgCl2, 1.5 mM DTT, 0.003% Brij35, pH 7.5) including the ERK2 protein and a test compound at a predetermined concentration was incubatedat room temperature for 15 minutes. Thereafter, 3 μL of a mixed solution of FL-Peptide 8 (5-FAM-IPTSPITTTYFFFKKK-COOH) (Caliper Lifescience) which was a substrate and ATP(SIGMA-ALDLICH) were added thereto to a final concentration of 4.25 μM and 43 μM, respectively. The reaction solution was further incubated at 25° C. for 120 minutes to carry out an enzyme reaction.
The enzyme reaction was stopped by adding 27 μL of a reaction-stopping solution (100 mM HEPES, 11.2 mM EDTA, 5.6% Brij35, pH 7.5) including a 0.5% Coating reagent 8 (PerkinElmer, Inc.) after the reaction. Thereafter, non-phosphorylated peptides and phosphorylated peptides were separated using LabChip Ez Reader (Caliper LifeScience, Inc.) to quantify the proportion of phosphorylated peptides.
as §1

[2] = IC50 class, read-out: PI3Kα Inhibitory Activity
[3] = IC50 class, read-out: ERK2 Inhibitory Activity

Row | IC50 (human PI3Kα protein; [2]) | IC50 [1, 3] | IC50 (human PI3Kα protein; read-out: PI3Kα, IC50) | IC50 ([1]; read-out: ERK2, IC50) | Structure (SMILES)
1 | 100 to 1000 nM | < 100 nM | – | – | O=C(NCCc1c[nH]c2ccccc12)Nc1ccc2ncc(-c3cn[nH]c3)cc2n1 [Compound 0112]
2 | < 100 nM | 100 to 1000 nM | – | – | CN1CCN(c2cnc3ccc(NC(=O)NC4CCCC4)nc3c2)CC1=O [Compound 0155]
3 | < 100 nM | < 100 nM | – | – | CC(C)[C@@H](C)NC(=O)Nc1ccc2ncc(-c3cn[nH]c3)cc2n1 [Compound 0082]
4 | < 100 nM | < 100 nM | – | – | O=C(NCCCCc1ccccc1F)Nc1ccc2ncc(-c3cnn(CCCN4CCOCC4)c3)cc2n1 [Compound 0183]
5 | 1000 to 10000 nM | 100 to 1000 nM | – | – | O=C(NCCn1cnc2ccccc21)Nc1ccc2ncc(-c3cn[nH]c3)cc2n1 [Compound 0111]
6 | 100 to 1000 nM | 100 to 1000 nM | – | – | Cc1noc(C)c1-c1cnc2ccc(NC(=O)NC3CCCC3)nc2c1 [Compound 0050]
7 | < 100 nM | 100 to 1000 nM | – | – | CC1CN(c2cnc3ccc(NC(=O)NC4CCCC4)nc3c2)CCO1 (centres unmarked) [Compound 0090]
8 | 100 to 1000 nM | 1000 to 10000 nM | – | – | CN(C)CCNc1cnc2ccc(NC(=O)NC3CCCC3)nc2c1 [Compound 0011]
9 | < 100 nM | < 100 nM | – | – | CC(C)(C)NC(=O)Nc1ccc2ncc(-c3cn[nH]c3)cc2n1 [Compound 0059]
10 | < 100 nM | 100 to 1000 nM | – | – | O=C(Nc1ccc2ncc(-c3nn[nH]n3)cc2n1)NC1CCCC1 [Compound 0131]
11 | < 100 nM | 100 to 1000 nM | – | – | CN(C)CCCn1cc(-c2cnc3ccc(NC(=O)NC4(C)CCCC4)nc3c2)cn1 [Compound 0258]
12 | 100 to 1000 nM | < 100 nM | – | – | O=C(NCC1CCCCO1)Nc1ccc2ncc(-c3cn[nH]c3)cc2n1 (centres unmarked) [Compound 0189]
13 | 1000 to 10000 nM | < 100 nM | – | – | O=C(Nc1ccc2ncc(-c3cn[nH]c3)cc2n1)N[C@@H]1CCC[C@H]1OCc1ccccc1 [Compound 0160]
14 | < 100 nM | < 100 nM | – | – | O=C(Nc1ccc2ncc(N3CCOCC3)cc2n1)NC1CCCC1 [Compound 0008]
15 | < 100 nM | < 100 nM | – | – | COc1cc(-c2cnc3ccc(NC(=O)NC4CCCC4)nc3c2)ccc1O [Compound 0001]
16 | 100 to 1000 nM | < 100 nM | – | – | COCCNC(=O)Nc1ccc2ncc(-c3cn[nH]c3)cc2n1 [Compound 0098]
17 | < 100 nM | 100 to 1000 nM | – | – | CN1CCN(CCCn2cc(-c3cnc4ccc(NC(=O)NC5(C)CCCC5)nc4c3)cn2)CC1 [Compound 0257]
18 | 100 to 1000 nM | < 100 nM | – | – | O=C(Nc1ccc2ncc(-n3ccnc3)cc2n1)NC1CCCC1 [Compound 0259]
19 | 1000 to 10000 nM | 100 to 1000 nM | – | – | O=C(NCCO)Nc1ccc2ncc(-c3cn[nH]c3)cc2n1 [Compound 0097]
20 | < 100 nM | > 10000 nM | – | – | COc1cccc(Nc2cnc3ccc(NC(=O)NC4CCCC4)nc3c2)c1 [Compound 0029]
21 | < 100 nM | < 100 nM | – | – | O=C(Nc1ccc2ncc(-c3cnn(CCCN4CCCC4)c3)cc2n1)NC1CCCC1 [Compound 0246]
22 | 100 to 1000 nM | < 100 nM | – | – | O=C(NCCCCc1ccccc1Cl)Nc1ccc2ncc(-c3cn[nH]c3)cc2n1 [Compound 0165]
23 | < 100 nM | 100 to 1000 nM | – | – | O=C(Nc1ccc2ncc(Nc3cc[nH]n3)cc2n1)NC1CCCC1 [Compound 0126]
24 | < 100 nM | < 100 nM | – | – | COCCN(CCOC)CCn1cc(-c2cnc3ccc(NC(=O)NC4CCCC4)nc3c2)cn1 [Compound 0048]
25 | < 100 nM | 100 to 1000 nM | – | – | O=C(Nc1ccc2ncc(-c3cnn(C4CCNC4)c3)cc2n1)NC1CCCC1 (centres unmarked) [Compound 0144]
26 | 100 to 1000 nM | < 100 nM | – | – | CC(C)(C)OC(=O)N1CC[C@@H](NC(=O)Nc2ccc3ncc(-c4cn[nH]c4)cc3n2)C1 [Compound 0070]
27 | < 100 nM | < 100 nM | – | – | CN1CCN(CCn2cc(-c3cnc4ccc(NC(=O)NC5CCCC5)nc4c3)cn2)CC1 [Compound 0223]

Row | IC50 (human PI3Kα protein; [2]) | IC50 [1, 3] | IC50 (human PI3Kα protein; read-out: PI3Kα, IC50) | IC50 ([1]; read-out: ERK2, IC50) | Structure (SMILES)
28 | 100 to 1000 nM | < 100 nM | – | – | C[C@@H](NC(=O)Nc1ccc2ncc(-c3cn[nH]c3)cc2n1)C1CCCC1 [Compound 0198]
29 | < 100 nM | < 100 nM | – | – | C=Cn1cc(-c2cnc3ccc(NC(=O)NC4CCCC4)nc3c2)cn1 [Compound 0019]
30 | < 100 nM | < 100 nM | – | – | O=C(NCCCCc1ccccc1F)Nc1ccc2ncc(-c3cn[nH]c3)cc2n1 [Compound 0171]
31 | < 100 nM | 100 to 1000 nM | – | – | O=C(Nc1ccc2ncc(-c3cnn(CCN4CC5(COC5)C4)c3)cc2n1)NC1CCCC1 [Compound 0117]
32 | 100 to 1000 nM | 100 to 1000 nM | – | – | O=C(Nc1ccc2ncc(N3CCNCC3)cc2n1)NC1CCCC1 [Compound 0013]
33 | < 100 nM | 100 to 1000 nM | – | – | CN(C)Cc1nn(C)cc1-c1cnc2ccc(NC(=O)NC3CCCC3)nc2c1 [Compound 0217]
34 | < 100 nM | < 100 nM | – | – | CC(C)NC(=O)Nc1ccc2ncc(-c3cn[nH]c3)cc2n1 [Compound 0053]
35 | > 10000 nM | 100 to 1000 nM | – | – | O=C(NCCCCN1CCCC1)Nc1ccc2ncc(-c3cn[nH]c3)cc2n1 [Compound 0177]
36 | 100 to 1000 nM | 1000 to 10000 nM | – | – | O=C(Nc1ccc2ncccc2n1)NC1CCCC1 [Compound 0116]
37 | 1000 to 10000 nM | 1000 to 10000 nM | – | – | O=C(Nc1ccc2ncc(CN3CCOCC3)cc2n1)NC1CCCC1 [Compound 0132]
38 | 1000 to 10000 nM | 100 to 1000 nM | – | – | CCOC(=O)CNC(=O)Nc1ccc2ncc(-c3cn[nH]c3)cc2n1 [Compound 0062]
39 | < 100 nM | 100 to 1000 nM | – | – | COCCN(C)c1cnc2ccc(NC(=O)NC3CCCC3)nc2c1 [Compound 0026]
40 | < 100 nM | 1000 to 10000 nM | – | – | Cn1cc(-c2cc3nc(NC(=O)NC4CCCC4)ccc3nc2N)cn1 [Compound 0227]
41 | < 100 nM | < 100 nM | – | – | O=C(Nc1ccc2ncc(-c3cn[nH]c3)cc2n1)NC1Cc2ccccc2C1 [Compound 0086]
42 | 100 to 1000 nM | < 100 nM | – | – | O=C(Nc1ccc2ncc(-c3ccc(CO)cc3)cc2n1)NC1CCCC1 [Compound 0042]
43 | < 100 nM | < 100 nM | – | – | O=C(Nc1ccc2ncc(-c3cn[nH]c3)cc2n1)NC1CCCCCC1 [Compound 0058]
44 | < 100 nM | < 100 nM | – | – | O=C(Nc1ccc2ncc(-c3c[nH]nc3CO)cc2n1)NC1CCCC1 [Compound 0219]
45 | 100 to 1000 nM | 1000 to 10000 nM | – | – | O=C(Nc1ccc2ncc(Oc3cnccn3)cc2n1)NC1CCCC1 [Compound 0224]
46 | < 100 nM | > 10000 nM | – | – | COc1ccc(Nc2cnc3ccc(NC(=O)NC4CCCC4)nc3c2)cc1 [Compound 0028]
47 | < 100 nM | < 100 nM | 50 nM | < 3 nM | O=C(NCCCCc1ccccc1)Nc1ccc2ncc(-c3cn[nH]c3)cc2n1 [Compound 0064]
48 | < 100 nM | < 100 nM | – | – | CS(=O)(=O)N1CCN(c2cnc3ccc(NC(=O)NC4CCCC4)nc3c2)CC1 [Compound 0151]
49 | 1000 to 10000 nM | 1000 to 10000 nM | – | – | O=C(Nc1ccc2ncc(-c3cnc4ccccc4c3)cc2n1)NC1CCCC1 [Compound 0121]
50 | < 100 nM | 100 to 1000 nM | – | – | COCCNCCn1cc(-c2cnc3ccc(NC(=O)NC4CCCC4)nc3c2)cn1 [Compound 0047]
51 | 100 to 1000 nM | < 100 nM | – | – | C[C@H](NC(=O)Nc1ccc2ncc(-c3cn[nH]c3)cc2n1)C1CCCC1 [Compound 0199]
52 | 1000 to 10000 nM | < 100 nM | – | – | CC(C)(C)OC(=O)n1cc(-c2cnc3ccc(NC(=O)NC4CCCc5ccccc54)nc3c2)cn1 (centres unmarked) [Compound 0066]
53 | 100 to 1000 nM | < 100 nM | – | – | CN(CCNC(=O)Nc1ccc2ncc(-c3cn[nH]c3)cc2n1)Cc1ccccc1 [Compound 0108]
54 | < 100 nM | < 100 nM | – | – | CN(CCO)CCn1cc(-c2cnc3ccc(NC(=O)NC4CCCC4)nc3c2)cn1 [Compound 0045]
